Measured values taken from PubChem BioAssay (NCI).
Several values for one entry are separate records, joined by “and”; a condition that tells them apart may be missing. Equal values may be shown once.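 Five compound concentrations were applied to cells in 96-well plates for 48 hours; endpoints were derived by simple linear interpolation of the resulting dose-response curve. GI50 is the concentration that inhibits growth by half. At the TGI there is no net growth.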

How the values were obtained:
Test in all cases: DTP human tumour cell line panel, 48 h
COLO 205 colon = system: COLO 205 colon
DU-145 prostate = system: DU-145 prostate
HCC-2998 colon = system: HCC-2998 colon
LOX IMVI melanoma = system: LOX IMVI melanoma
NCI-H522 lung = system: NCI-H522 lung
OVCAR-4 ovarian = system: OVCAR-4 ovarian
SF-295 CNS = system: SF-295 CNS
SK-MEL-28 melanoma = system: SK-MEL-28 melanoma

Row | SMILES | GI50 (COLO 205 colon) | TGI (COLO 205 colon) | GI50 (DU-145 prostate) | TGI (DU-145 prostate) | GI50 (HCC-2998 colon) | TGI (HCC-2998 colon) | GI50 (LOX IMVI melanoma) | TGI (LOX IMVI melanoma) | GI50 (NCI-H522 lung) | TGI (NCI-H522 lung) | GI50 (OVCAR-4 ovarian) | TGI (OVCAR-4 ovarian) | GI50 (SF-295 CNS) | TGI (SF-295 CNS) | GI50 (SK-MEL-28 melanoma) | TGI (SK-MEL-28 melanoma)
1 | CN(CC(=O)N(Cc1ccc(C2CCCCC2)cc1)c1ccc(C(=O)O)cc1)S(=O)(=O)c1c(F)c(F)c(F)c(F)c1F | 1.97 µM | 3.95 µM | 1.74 µM | 3.11 µM | 1.76 µM | 3.22 µM | 1.61 µM | 3.03 µM | 1.77 µM | 3.65 µM | 1.81 µM | 3.48 µM | 15.2 µM | 29.4 µM | 1.62 µM | 3.03 µM
2 | C=CC(=O)N1CC2(CC(n3nc(-c4ccc5c(cnn5C)c4)c(-c4c(Cl)c(C)cc5[nH]ncc45)c3C)C2)C1 | 2.1 µM | 4.17 µM | 3.11 µM | 9.45 µM | 1.85 µM | 3.36 µM | 1.69 µM | 3.55 µM | 2.09 µM | 5.15 µM | 3.52 µM | 14.8 µM | 2.16 µM | 5.43 µM | 2.44 µM | 5.44 µM
3 | Cn1ncc(Cl)c1-c1cc(C(=O)N[C@H](CN)Cc2ccc(F)c(F)c2)oc1Cl | 0.593 µM and 0.575 µM | 5.84 µM and 3.22 µM | 4.25 µM and 2.48 µM | 17.8 µM and > 10 µM | – | 6.23 µM and 2.08 µM | 2.65 µM and 1.44 µM | 19.9 µM and 4.19 µM | 4.82 µM and 2.04 µM | 16 µM and > 8.82 µM | 4.06 µM and 5.4 µM | 17.2 µM and > 10 µM | 0.145 µM and 0.111 µM | 5.04 µM and 3.27 µM | 1.02 µM and 0.935 µM | 4.78 µM and 3.2 µM
4 | Cc1cc([N+](=O)[O-])c2ccccc2[n+]1[O-] | 0.113 µM and 0.117 µM | 0.338 µM and 0.319 µM | 0.073 µM and 0.0815 µM | 0.325 µM and 0.564 µM | 0.128 µM and 0.221 µM | 0.375 µM and 0.664 µM | 1.16 µM and 0.385 µM | 3.48 µM and 1.87 µM | 0.739 µM and 0.303 µM | 2.42 µM and 0.959 µM | 2.72 µM and 2.61 µM | 10.1 µM and 9.13 µM | 0.206 µM and 0.236 µM | 0.76 µM and 2 µM | 1.61 µM | 3.9 µM and 4.54 µM
5 | COc1cccc(/C=C2\COc3ccc(-c4ccccc4)cc3C2=O)c1 | 2.18 µM | 5.06 µM | 2.05 µM | 5.43 µM | 2 µM | 3.95 µM | 2.02 µM | 4.62 µM | 1.86 µM | 4.06 µM | 2.79 µM | 7.63 µM | 2.52 µM | 10.3 µM | 1.91 µM | 3.62 µM
6 | COc1ccc(/C(C#N)=C2C=C/C(=N/O)c3ccccc3\2)cc1 | 1.34 µM | 3.52 µM | 0.34 µM | 8.85 µM | 0.346 µM | 1.44 µM | 0.382 µM | 14.7 µM | 0.0891 µM | 0.838 µM | 0.927 µM | 39.1 µM | 0.687 µM | 13 µM | 1.22 µM | 20 µM
7 | CCn1c(-c2nonc2N)nc2cncc(C(=O)N3CC[C@H](N)C3)c21 | 5.87 µM | 24.7 µM | > 25 µM | > 25 µM | > 25 µM | > 25 µM | > 25 µM | > 25 µM | > 9.56 µM | > 25 µM | > 25 µM | > 25 µM | 5.05 µM | > 25 µM | > 25 µM | > 25 µM
8 | Cn1cc(C2=C(c3cn(CCCCCSC(=N)N)c4ccccc34)C(=O)NC2=O)c2ccccc21 | 1.24 µM | 4.68 µM | 3.58 µM | 6.93 µM | 3.56 µM | 7.19 µM | 2.92 µM | 6.48 µM | 1.92 µM | 5.59 µM | 3.16 µM | 7.32 µM | 1.76 µM | 5.38 µM | 3.55 µM | 7.17 µM
9 | CSc1ccc2c(c1)C(N1CCN(C)CC1)Cc1ccccc1S2 (stereo not given) | 1.76 µM | 3.74 µM and 3.29 µM | 2.04 µM | 31.4 µM and 4.38 µM | 1.65 µM | 25.9 µM and 3.08 µM | 1.63 µM | 4.05 µM and 3.05 µM | 1.76 µM | 10.2 µM and 3.29 µM | 2.6 µM | 9.66 µM and 9.89 µM | 1.84 µM | 15.2 µM and 3.7 µM | 1.64 µM | 3.06 µM
10 | O=C(CC(Cl)=C(Cl)Cl)c1cccc(Cl)c1Cl | > 100 µM | > 100 µM | > 100 µM | > 100 µM | – | – | 38.1 µM | > 100 µM | 36.9 µM | > 100 µM | > 100 µM | > 100 µM | – | – | > 100 µM | > 100 µM
11 | COc1cc2nc3cc([N+](=O)[O-])ccc3c(NCCNCC(C)(C)O)c2cc1OC | 0.37 µM | 1.54 µM | 0.44 µM | 2.34 µM | – | – | 0.715 µM | 2.51 µM | 0.256 µM | 1.04 µM | 0.672 µM | 2.99 µM | 0.517 µM | 3.13 µM | – | –
12 | COC(=O)[C@H]1CCCN1C(=O)[C@H]1CCCN1C(=O)[C@H](Cc1c[nH]c2ccccc12)NC(=S)Nc1cc(C(F)(F)F)cc(C(F)(F)F)c1 | 2.08 µM | 4.28 µM | 6.53 µM | > 100 µM | 2.42 µM | 5.96 µM | 3.19 µM | 26.3 µM | 4.49 µM | 77.2 µM | 6.49 µM | > 100 µM | 2.77 µM | 12.9 µM | 5.83 µM | > 100 µM
13 | CCOC(=O)COc1ccc2c(C)cc(=O)oc2c1 | – | > 100 µM | – | > 100 µM | – | > 100 µM | – | > 100 µM | – | > 100 µM | – | > 100 µM | – | > 100 µM | – | > 100 µM
14 | CC(=O)c1c(C)[nH]c(-c2nc3ccc(N4CCN(C)CC4)cc3[nH]2)c1-c1ccccc1 | 0.52 µM | 17.3 µM | 10.2 µM | 47 µM | 1.54 µM | 12.8 µM | 0.546 µM | 10.1 µM | 0.258 µM | 14.4 µM | 2.55 µM | 43.2 µM | 2.07 µM | 19.2 µM | 3.38 µM | 19.9 µM
15 | CC[C@H](C)[C@H](NC(=O)CN(C)C)C(=O)N(C)[C@H](C[C@@H](OC(C)=O)c1nc(C(=O)NC23CC(C(=O)OC)(C2)C3)cs1)C(C)C | 0.144 µM | 5.59 µM | 0.183 µM | > 25 µM | 0.49 µM | > 25 µM | 0.276 µM | > 25 µM | 0.0511 µM | > 7.88 µM | 4.64 µM | > 25 µM | 0.647 µM | > 25 µM | 3.06 µM | > 25 µM
16 | Nc1ncnc2c1ncn2C1OC(CO)C(O)C1N (stereo not given) | – | > 100 µM | – | > 100 µM | – | – | – | > 100 µM | – | > 100 µM | – | > 100 µM | – | > 100 µM | – | > 100 µM
17 | CCN(CC)Cc1cc2[nH]c3c4ccc(Cl)cc4ncc3c2cc1OC | 3.69 µM and 1.79 µM | 8.54 µM and 3.26 µM | 3 µM and 2.46 µM | 9.18 µM and 6.38 µM | 2.22 µM and 3.33 µM | 6.79 µM and 13.6 µM | 1.73 µM and 1.7 µM | 3.43 µM and 3.23 µM | 7.16 µM and 2.2 µM | 17.7 µM and 4.97 µM | 1.9 µM and 1.54 µM | 4.33 µM and 3.4 µM | 4.98 µM and 1.95 µM | 9.67 µM and 4.01 µM | 1.95 µM and 1.88 µM | 3.53 µM and 3.42 µM
18 | COc1cc2c3c(n(C)c(=O)c2cc1OC)-c1ccc(C#N)cc1C3=O | > 100 µM | > 100 µM | > 100 µM | > 100 µM | > 100 µM | > 100 µM | > 100 µM | > 100 µM | 52 µM | > 100 µM | > 100 µM | > 100 µM | 73.7 µM | > 100 µM | > 100 µM | > 100 µM
19 | Cc1ccc(S(=O)(=O)NC(CN)C(=O)O)cc1 (stereo not given) | – | > 100 µM | – | > 100 µM | – | – | – | > 100 µM | – | > 100 µM | – | > 100 µM | – | > 100 µM | – | > 100 µM
20 | CN(C)C(=S)SCC(=O)Nc1ccccc1 | – | > 100 µM | – | > 100 µM | – | > 100 µM | – | > 100 µM | – | > 100 µM | – | > 100 µM | – | > 100 µM | – | > 100 µM
21 | CN1C(=O)C2(c3ccccc31)N(c1ccc(Cl)cc1)C(=O)C2(c1ccccc1)c1ccccc1 (stereo not given) | 37.6 µM | > 100 µM | 99 µM | > 100 µM | 66 µM | > 100 µM | > 100 µM | > 100 µM | 10 µM | > 100 µM | 5.1 µM | > 100 µM | 11 µM | > 100 µM | > 100 µM | > 100 µM
22 | CN(CCCNC(=O)CCOCCOCCOCCNC(=O)Cc1ccc2ccc3cccc4ccc1c2c34)CCCNc1cc(-c2ccc3ccccc3c2)nc2ccccc12 | 0.436 µM | 0.902 µM | 0.561 µM | 1.2 µM | 0.554 µM | 1.03 µM | 0.176 µM | 0.333 µM | – | – | 0.538 µM | 1.18 µM | 1.57 µM | 3.75 µM | 0.191 µM | 0.347 µM
23 | O=C1c2ccccc2C(=O)c2c(OCCOCCO)cccc21 | – | > 100 µM | – | > 100 µM | – | – | – | > 100 µM | – | > 100 µM | – | > 100 µM | – | > 100 µM | – | > 100 µM
24 | COC(=O)C=Cc1ccc2nncnc2c1 (mixture of isomers) | – | > 100 µM | – | > 100 µM | – | – | – | > 100 µM | – | > 100 µM | – | > 100 µM | – | 64.3 µM | – | > 100 µM
25 | CC1=C(Nc2ccc(N3CCN(C)CC3)cc2)C(=O)c2cncnc2C1=O | 15.8 µM | 33.1 µM | 4.34 µM | 16.9 µM | 17.4 µM | 36 µM | – | – | 16.1 µM | 39.3 µM | 1.09 µM | 2.28 µM | 11.9 µM | 28.1 µM | 17.1 µM | 43.3 µM
